“Also recorded” adds a separate entry of the source.
Assays:
Format in all cases: cell-based, murine
3T3-L1 cells [1] = assay: Basal cell death of stable 12Lo antisense knockout populations and clones (trypan blue)
3T3-L1 cells [2] = assay: DNA fragmentation (Roche Cell Death Detection ELISA) in stable knockout populations and clones; conditions: 10^−7M
Experimental: DNA Fragmentation (ELISA method): Apoptopic cells show hallmark random DNA fragmentation between nucleosomes. The “Cell Death Detection ELISA” format by Roche (Mannheim, Germany) was used in the following examples. Culture treatments and controls were performed for the tested period and after counting the cells and washing them twice with PBS, 250,000 cells/aliquot were prepared and stored dry at −180° C. until assay. Multiple replicates were usually prepared for assay together on the same day in the same kit. Assay was carried out exactly as described by the manufacturer on 250,000 cells/aliquot.
One hallmark of apoptosis is DNA fragmentation. In the current studies the Roche (Mannheim, Germany) version of this assay was used in the format of an ELISA assay, which measures released intact DNA/Histone-nucleosomes. The results are presented as antisense knockout levels normalized to parallel control values. In the experiment shown in FIGS. 10A-10B, populations of 3T3-L1 cells with either of the two 12Lo antisense knockout plasmids (“mp”-pCMV5′mp12Lo(Pst1)-A; “600a”-pcDNAh60012LoA) versus controls (“Con”) were directly compared: cell death versus relative DNA fragmentation.
To further validate the mechanism of cell death the Roche Cell Death kit was applied as a measure of DNA fragmentation, which is a classic apoptopic hallmark. […]

3T3-L1 stable cell lines = assay: Necrosis by lactate dehydrogenase (LDH) release
Experimental: Lactate Dehydrogenase Release (LDH): Necrotic cells release their cytoplasmic contents into the surrounding medium. In recent years the measurement of one such stable enzyme, LDH, has become a standard laboratory marker of necrosis (Goeptar et al., 1994; Moran et al., 1996). Cell cultures and treatments tested for LDH release had their supernatants collected, centrifuged (1,100×g, 5 minutes; to remove particulate debris) and supernatants tested automatically in a centralized facility (in-house) by method of Moran and Schnellmann (Moran et al., 1996), 1996. In each study a positive control for LDH release was a 1/5000 dilution of triton X100 directly into the cell culture, for the period of the bioassay. Negative control was medium without cells.
Cell death can occur as a result of different processes: apoptosis, which is a very programmed process, as well as other less programmed mechanisms such as necrosis. […] In recent years, investigators have been measuring the release of lactate dehydrogenase (LDH) from cells as a measure of cellular necrosis. The contribution of necrosis in the cell death of the 12Lo reduced expressing clones was thus examined by comparing LDH release from control and pCMV600a 12Lo antisense knockout stable preadipocyte cell lines grown in the presence or absence of 12-HETE. In FIG. 15, typical data of such a study is presented.

3T3-L1 cells [3] = assay: G418 selection kill level; conditions: 600 μg/ml G418 over two weeks
Experimental: 600 μg/ml is enough G418 to kill 100% 3T3-L1 cells over 2 weeks. Thus the levels used clearly distinguish between cells that incorporated G418 resistance (within the expression plasmid used) into their genomes and cells lacking this marker. A few passages after G418 release stable populations should recover and fill the plate.
The Fugene6 protocol was then used again for preparation of 12Lo antisense knockout and control clones together with the G418 selection marker as G418 resistance was built in to the pCDNA3.1 plasmid (see FIGS. 2A-2D). It was herein determined that 600 μg/ml G418 killed 100% of 3T3-L1 cells over two weeks. So on transfection of cells and selection with 650 μg/ml G418 over three weeks only those cells expressing strong […] resistance would survive and grow. Following three weeks of selection G418 release was gradual over the next 1-2 weeks.

Compound | effect of added 12-HETE on cell death of 12Lo antisense knockout clones (3T3-L1 cells [1]; 12-HETE 10^−7 M) | effect of 12-HETE on cell survival of control clone (3T3-L1 cells [1]; pCMVCAT stably transfected 3T3-L1 cells, 10^−7M) | effect of 12-HETE on DNA fragmentation levels (3T3-L1 cells [2]; each of the pCMV600a clonal stable lines) | DNA fragmentation level on supplemented 12-HETE (3T3-L1 cells [2]; pCMV600a clone 10) | effect of 12-HETE on cell necrosis (LDH release) (3T3-L1 stable cell lines) | 3T3-L1 cells killed (3T3-L1 cells [3]) [%]
CCCCC/C=C\C[C@@H](O)/C=C/C=C\C/C=C\CCCC(=O)O [12-HETE, 12 hydroxyeicosatetraenoic acid] | much less cell death; also recorded: encouraged cell survival | no effect | reduced the DNA fragmentation levels | nearly “normal” (or control) levels | no effect | –
CN[C@@H]1[C@@H](O)[C@@H](O[C@@H]2[C@@H](O)[C@H](O[C@H]3O[C@H]([C@@H](C)O)[C@@H](O)[C@H](O)[C@H]3N)[C@@H](N)C[C@H]2N)OC[C@]1(C)O [G418] | – | – | – | – | – | 100

From US20170327827A1, “ADIPOCYTE-SPECIFIC CONSTRUCTS AND METHODS FOR INHIBITING PLATELET-TYPE 12 LIPOXYGENASE EXPRESSION” (The Medical Research, Infrastructure, and Health Services …, priority 2006, published 2017)
